Experimental data from US10758596B2, “Compositions and methods to prevent and treat biofilms” (ZIOLASE, LLC, priority 2011, dated 2020).
Converted amounts (≈) assume the structure as drawn. Like-named read-outs stand apart in the source and are kept apart here.

Experiments:
Format in all cases: cell-based
P. aeruginosa PAO1 [1] = experiment: Biofilm mass formation (Crystal Violet staining), P. aeruginosa PAO1 biofilm; details: antibiotic alone 1/4 MIC added to 24 hour preformed biofilm
P. aeruginosa PAO1 [2] = experiment: Bacterial cell viability (Resazurin assay), P. aeruginosa PAO1 biofilm
Procedure: (§1) Various parameters that were evaluated in each part of the analysis include: 1) Biofilm mass formation (% inhibition—by Crystal Violet staining method); 2) Bacterial cell viability (% inhibition—by Resazurin assay); and 3) Bacterial cell growth (by Colony Counting—CFU/ml plating).
The “U” corresponds to the International Units for the enzyme in each testing well. This dose was further used in subsequent experiments. […] In an old stage (72 hour of growth), the biofilm formation was still inhibited by about 50.0%. […]
(§2) The experimental design for the second strain on the preformed biofilm included: • Strain: P. aeruginosa PAO1 • Temperature: 35±2° C. • Incubation Conditions: Static • Time Points: Preformed biofilm for 24 hours, 24 hours of further growth • Treatment: (added to well containing a suspension of P. aeruginosa PAO1 ˜10^7 CFU/ml) • Solvent 1: 50% glycerol containing 1% Triton™ X-100 and 25 mM potassium phosphate, pH 6.5 • Solvent 2: 25 mM potassium phosphate, pH 6.5 • SIGMA Trehalase: 0.092 UI • Dialyzed Trehalase: 0.092 UI • Parameters Assessed: • Biofilm mass formation (staining with crystal violet 0.06%) • Cells viability (incubation with resazurin) • Cell growth by colony counting (CFU/mL)

S. aureus ATCC 25923 [3] = experiment: Bacterial cell viability (Resazurin assay), S. aureus ATCC 25923
Procedure: as §1
(§3) There now follows greater details about tests that show the effect of Trehalase in gram-positive bacteria (MRSA and MSSA S. aureus). […] It inhibited viability of bacterial cells in the biofilm (about 84%, about 81%, and about 63% correspondingly by Resazurin assay), and reduced the bacterial cell growth in the 24 hour biofilm (about 1.5 log by CFU/ml compared to the Control).
as §2, with “first” for “second”, “early” for “preformed”, “S. aureus ATCC25923” for “P. aeruginosa PAO1”, “Points:” for “Points: Preformed biofilm for 24 hours,”, “hours” for “hours of further growth”
as §2, with “first” for “second”, “S. aureus ATCC25923” for “P. aeruginosa PAO1”, “(CFU/mL) […]” for “(CFU/mL)”

S. aureus ATCC 25923 [4] = experiment: MIC by CLSI guidelines, S. aureus ATCC 25923
From the text: There is strong reproducibility of the data generated with S. aureus ATCC25923 (similar activity among different experiments).

S. aureus ATCC 25923 [5] = experiment: Biofilm mass formation (Crystal Violet staining), S. aureus ATCC 25923 biofilm; details: antibiotic alone 1/4 MIC; 24 hour grown biofilm
Procedure: as §1, §3
as §2, with “first” for “second”, “early” for “preformed”, “S. aureus ATCC25923” for “P. aeruginosa PAO1”, “Points:” for “Points: Preformed biofilm for 24 hours,”, “hours” for “hours of further growth”, “(CFU/mL) […]” for “(CFU/mL)”

S. aureus ATCC 25923 [6] = experiment: Bacterial cell growth by colony counting (CFU/mL), S. aureus ATCC 25923 biofilm and planktonic cells; details: antibiotic alone 1/4 MIC; 24 hour grown biofilm
Procedure: as §1, §3
as §2, with “first” for “second”, “early” for “preformed”, “S. aureus ATCC25923” for “P. aeruginosa PAO1”, “Points:” for “Points: Preformed biofilm for 24 hours,”, “hours” for “hours of further growth”, “(CFU/mL) […]” for “(CFU/mL)”

S. aureus ATCC33591 [7] = experiment: Biofilm mass formation, S. aureus ATCC33591 24 hour grown biofilm; details: Trehalase 0.092 UI/well, antibiotic 1/4 MIC; early (24 hour grown) biofilm
Procedure: as §1

S. aureus ATCC33591 [8] = experiment: MIC, S. aureus ATCC33591
From the text: Neither Gentamicin (GENT), nor Vancomycin (VAN) in sub-MICc doses (¼/MIC) triggered biofilm induction response.

S. aureus 3-Belgium = experiment: MIC, S. aureus 3-Belgium
[9] = test system: S. aureus strains (MSSA Oxford, MSSA ATCC 35556, MRSA ATCC 25923); experiment: MIC in broth (CLSI) in the presence and absence of Trehalase, selected S. aureus strains; details: Trehalase 0.092 UI, 24 hours
Procedure: There was testing of Trehalase on Clinical Isolates (S. aureus strains: Oxford, ATCC35556, and ATCC 25923 as the reference strain) at a time-point: 24 hours of biofilm growth.
The MIC determination with selected S. aureus strains proceeded as a first step. The materials and methods included:
S. aureus strains: Oxford; ATCC35556 and ATCC25923 (as reference strain)
In vitro assay: MIC in broth (according to CLSI guidelines)
Antibiotic concentration: two-fold series dilution from 16 to 0.0078 μg/mL
Incubation: T 37° C.; static condition

[10] = GENT/VAN experiment, Trehalase 0.092 UI/well, antibiotic 1/4 MIC, 24 hour grown biofilm

CC(C)(O/N=C(\C(=O)N[C@@H]1C(=O)N2C(C(=O)[O-])=C(C[n+]3ccccc3)CS[C@H]12)c1csc(N)n1)C(=O)O [Ceftazidime] was tested, and the “increase of biofilm mass formation (BIR) compared to Control level” value (P. aeruginosa PAO1 [1]) was “about 1.6”, the “inhibition of cell viability (Resazurin assay)” value (“inhibition of cell viability” below) (P. aeruginosa PAO1 [2]; Pseudomonas aeruginosa, 48 h) was 25-50% and the “inhibition of biofilm cell viability (Resazurin assay)” value (“inhibition of biofilm cell viability” below) (S. aureus ATCC 25923 [3]; Staphylococcus aureus, 24 h) was “about 13%”. For the same molecule, the MIC (S. aureus ATCC 25923 [4]; Staphylococcus aureus, ATCC25923, read-out: MIC) was 8 µg/mL (≈ 14.6 µM).

NC[C@H]1O[C@H](O[C@H]2[C@H](O)[C@@H](O[C@H]3O[C@H](CO)[C@@H](O)[C@H](N)[C@H]3O)[C@H](N)C[C@@H]2N)[C@H](N)C[C@@H]1O [Tobramycin] was tested, and the “increase of biofilm mass formation (BIR) compared to Control level” value (P. aeruginosa PAO1 [1]) was “about 1.4”, the “inhibition of cell viability” value (P. aeruginosa PAO1 [2]; added at beginning, antibiotic 1/4 MIC, 24 hour grown biofilm) was “about 25%” and the “inhibition of cell viability” value (P. aeruginosa PAO1 [2]; added at beginning, sub-MIC antibiotic, 48 hour grown biofilm) was “about 25%”.

With CN[C@H](CC(C)C)C(=O)N[C@H]1C(=O)N[C@@H](CC(N)=O)C(=O)N[C@H]2C(=O)N[C@H]3C(=O)N[C@H](C(=O)N[C@H](C(=O)O)c4cc(O)cc(O)c4-c4cc3ccc4O)[C@H](O)c3ccc(c(Cl)c3)Oc3cc2cc(c3O[C@@H]2O[C@H](CO)[C@@H](O)[C@H](O)[C@H]2O[C@H]2C[C@](C)(N)[C@H](O)[C@H](C)O2)Oc2ccc(cc2Cl)[C@H]1O [Vancomycin] the “increased biofilm mass (biofilm induction response, BIR) compared to Negative Control” value (S. aureus ATCC 25923 [5]) was 1.8 fold, the “inhibition of biofilm cell viability” value (S. aureus ATCC 25923 [3]; [10]) was “no effect” and the “effect on cell growth” value (S. aureus ATCC 25923 [6]) was “no effect”. For the same molecule, the “inhibition / reduction of biofilm mass formation compared to Control” value (S. aureus ATCC33591 [7]) was “about 20%”, the MIC (S. aureus ATCC 25923 [4]) was 2.0 µg/mL (≈ 1.38 µM) and the MIC (S. aureus ATCC33591 [8]; Staphylococcus aureus, ATCC33591) was 2 µg/mL (≈ 1.38 µM). For the same molecule, the MIC (S. aureus 3-Belgium; Staphylococcus aureus, 3BELGIUM) was 2 µg/mL (≈ 1.38 µM) and the “effect of addition of Trehalase on MIC” value [9] was “No significant effect”.

Gentamicin was tested, and the “increased biofilm mass (biofilm induction response, BIR) compared to Negative Control” value (S. aureus ATCC 25923 [5]) was “two-fold”, the “inhibition of biofilm cell viability” value (S. aureus ATCC 25923 [3]; [10]) was “no effect” and the “effect on cell growth” value (S. aureus ATCC 25923 [6]) was “no effect”. The “inhibition / reduction of biofilm mass formation compared to Control” value (S. aureus ATCC33591 [7]) was “about 10%”, the MIC (S. aureus ATCC 25923 [4]) was 2 µg/mL and the MIC (S. aureus ATCC33591 [8]) was 2.0 µg/mL. The MIC (S. aureus 3-Belgium) was 32.0 µg/mL, the “MIC value reduction on addition of Trehalase” value ([9]; clinical isolates) was “up to 16 fold” and the “MIC value reduction on addition of Trehalase” value ([9]; reference isolates) was no more than 33 fold.
